Read-outs that look alike come from different tables or passages of the source.
Columns and labels:
[1] = test system: C2C12 cells; settings: for protein content / protein content, percentage difference from vehicle: 3 days in fusion medium
Experimental: Procedure A—Three days in fusion medium. C2hAR57 cells were plated in 12-well tissue culture plates (Costar, Corning, N.Y.) at 4×10^4 cells/well in high mitogen growth medium.

[2] = test system: C2hAR57 cells; settings: for Change in protein content: during 24 hours in fusion medium
Experimental: Procedure B—24 Hours in fusion medium. […] Cell extracts were prepared from the second set of cultures after 24 hours in fusion medium (day one). The change in protein content was determined by subtracting the average protein content for each treatment on day zero from the average protein content on day one.

Q: `C[C@]12CCC(=O)C[C@@H]1CC[C@@H]1[C@@H]2CC[C@]2(C)[C@@H](O)CC[C@@H]12` [DHT, dihydrotestosterone] was tested. Which protein content ([1]; C2C12, 0.001 nM DHT) did it give?
A: Its protein content is 245 ± 5 micrograms/well.

Q: What about the “protein content, percentage difference from vehicle” value ([1]; C2C12, 0.001 nM DHT) of the same molecule?
A: Its value is “+3%”.

Q: What about the protein content ([1]; C2C12, 0.01 nM DHT) of the same molecule?
A: The protein content was 228 ± 3 micrograms/well.

Q: And the “protein content, percentage difference from vehicle” value ([1]; C2C12, 0.01 nM DHT)?
A: Its value is −4%.

Q: What about the protein content ([1]; C2C12, 0.1 nM DHT) of the same molecule?
A: Its protein content is 246 ± 4 micrograms/well.

Q: And the “protein content, percentage difference from vehicle” value ([1]; C2C12, 0.1 nM DHT)?
A: The value was “+3%”.

Q: And the protein content ([1]; C2C12, 1 nM DHT)?
A: Its protein content is 256 ± 9 micrograms/well.

Q: And the “protein content, percentage difference from vehicle” value ([1]; C2C12, 1 nM DHT)?
A: Its value is “+7%”.

Q: And the protein content ([1]; C2C12, 10 nM DHT)?
A: Its protein content is 243 ± 6 micrograms/well.

Q: And the “protein content, percentage difference from vehicle” value ([1]; C2C12, 10 nM DHT)?
A: The value was “+2%”.

Q: What about the protein content ([1]; C2C12, 100 nM DHT) of the same molecule?
A: The protein content was 243 ± 6 micrograms/well.

Q: And the “protein content, percentage difference from vehicle” value ([1]; C2C12, 100 nM DHT)?
A: The value was “+2%”.

Q: What about the protein content ([1]; C2C12, 1000 nM DHT) of the same molecule?
A: Its protein content is 278 ± 2 micrograms/well.

Q: What about the “protein content, percentage difference from vehicle” value ([1]; C2C12, 1000 nM DHT) of the same molecule?
A: Its value is “+17%”.

Q: And the “change in total protein content” value ([1]; C2C12 cultures, DHT 10^-12-10^-6 M, Procedure A)?
A: Its value is “no consistent change”.

Q: And the “Change in protein content” value ([2]; C2hAR57, 0.001 nM DHT)?
A: The value was −93 micrograms/well.

Q: And the “Change in protein content” value ([2]; C2hAR57, 0.1 nM DHT)?
A: The value was −56 micrograms/well.

Q: What about the “Change in protein content” value ([2]; C2hAR57, 10 nM DHT) of the same molecule?
A: The value was “+48 micrograms/well”.

Q: And the “Change in protein content” value ([2]; C2hAR57, 1000 nM DHT)?
A: The value was “+61 micrograms/well”.

Q: And the “effect on net loss of protein seen with vehicle” value ([2]; C2hAR57, increasing concentrations of DHT, Procedure B)?
A: Its value is “ameliorated and even reversed”.

From patent US20030215888A1, “Androgen receptor overexpressing skeletal myoblasts” (Pfizer Inc., priority 2002, published 2003)
